Test results: paper PMC4398322, “Snake neurotoxin α-bungarotoxin is an antagonist at native GABAA receptors” (Neuropharmacology, 2015)
Where “and” joins values, the source holds several entries; their conditions need not be identical. Equal entries are not always repeated. Where two headings read alike, the source gives them in different places.

Experiments:
α5β2γ2 GABAAR = target: T1, α5β2γ2 GABAAR (Mus musculus, UniProt P22723+P63137+Q8BHJ7); experiment: Whole-cell GABA-activated currents in transfected HEK-293 cells (patch clamp); assay type: cell-based, murine
T1 construct: expressed in transfected cells; host or cells: HEK-293
Description: (§1) Murine GABAAR α1-6, β1-3, γ2 and δ cDNAs subcloned into pRK-5 and pEGFP-C1 have been described previously ([Mortensen et al., 2011]).
(§2) Cells were transfected with equimolar ratios of cDNAs encoding for α1–6, β1–3 and δ or γ2 GABAA receptor subunits along with eGFP using a calcium phosphate method ([Mortensen et al., 2011]) 15–45 min after plating.
(§3) Patch electrodes had resistances of 4–5 MΩ and were filled with an internal solution containing (mM): 120 CsCl 1 MgCl2, 11 EGTA, 30 KOH, 10 HEPES, 1 CaCl2, and 2 K2ATP; pH – 7.2. HEK-293 cells were superfused with a saline solution containing (mM): 140 NaCl, 4.7 KCl, 1.2 MgCl2, 2.52 CaCl2, 11 Glucose, and 5 HEPES; pH 7.4. The saline for recording from primary neurons was supplemented with 2 mM kynurenic acid and pH adjusted to 7.4 to block all spontaneous excitatory post-synaptic currents (EPSCs). Membrane currents were filtered at 5 kHz (−3 dB, 6th pole Bessel, 36 dB/octave). HEK-293 cells were studied 48 h after transfection by voltage clamping cells at a holding potential of −20 to −40 mV with optimised series resistance (Rs, <10 MΩ) and whole-cell membrane capacitance compensation. Neuronal membrane currents were similarly recorded at a holding potential of −60 mV.
(§4) Spontaneous inhibitory postsynaptic currents (IPSCs) were recorded from dentate gyrus granule cells (DGGCs) with the same internal solution as above. Cells were voltage clamped at −60 mV and IPSCs were recorded using 5 kHz filtering with optimal series resistance and whole-cell capacitance compensation.

α1β2γ2 GABAAR = target: T2, α1β2γ2 GABAAR (Mus musculus, UniProt P22723+P62812+P63137); experiment: as above; assay type: cell-based, murine
T2 construct: expressed in transfected cells; host or cells: HEK-293
Description: as §1, §2, §3, §4

[1] = test system: GABAARs expressed in HEK293 cells; assay type: cell-based, murine
[2] = test system: native hippocampal GABAARs; assay type: cell-based, rat
Description: Dissociated hippocampal neurons were prepared from embryonic day 18 rat pups as described ([Hannan et al., 2012]). Briefly, hippocampi were dissected in ice-cold Hank's Balanced Salt Solution (HBSS) (Ca^2+/Mg^2+ free) before enzymatic dissociation in 0.1% (w/v) trypsin at 37 °C for 10 min followed by serial washes in pre-warmed HBSS to remove trypsin prior to trituration. Cells were mechanically dissociated using fire-polished glass Pasteur pipettes in plating medium composed of minimal essential medium (MEM) supplemented with 5% (v/v) fetal calf serum (FCS), 5% (v/v) horse serum, penicillin-G and streptomycin (200 units/ml and 200 μg/ml), 2 mM L-glutamine and 35 mM glucose. Cells were plated at a density of 10^6 per ml in plating medium on glass cover-slips previously coated with poly-D-lysine. The neurons were grown and maintained at 37 °C in a humidified 95% air/5% CO2 atmosphere.
After plating (30 min), the medium was removed and replaced with maintenance medium composed of Neurobasal-A supplemented with 1% (v/v) B-27, penicillin-G and streptomycin (100 units/ml and 100 μg/ml), 0.5% (v/v) Glutamax and 35 mM glucose.
as §3, §4

[3] = test system: dentate gyrus granule cells (DGGCs); experiment: Tonic inhibition (holding current, RMS noise) in dentate gyrus granule cells of acute hippocampal slices; assay type: cell-based, mouse
Description: (§5) Acute transverse brain slices were prepared from adult (P115–125) male C57BL/6J mice in accordance with the UK Animals (Scientific Procedures) Act 1986.
(§6) The brain was rapidly removed after terminal anaesthesia with isoflurane and immersed in ice-cold slicing solution composed of (mM): 85 NaCl, 2.5 KCl, 1 CaCl2, 4 MgCl2, 1.25 NaH2PO4, 26 NaHCO3, 75 sucrose, and 25 glucose, 2 kynurenic acid, pH – 7.4. The slicing solution was continuously bubbled with 95% […] and 5% CO2. Transverse 250 μm slices containing the ventral hippocampus were cut with a Leica VT1200S vibroslicer. The slicing solution was exchanged at 37 °C for 60 min with a recording solution containing (mM): 125 NaCl, 2.5 KCl, 2 CaCl2, 1 MgCl2, 1.25 NaH2PO4, 26 NaHCO3, 2 kynurenic acid, and 25 glucose, pH 7.4.
For tonic inhibition, to determine the average holding currents, a 60 s continuous current recording was sampled every 1 s, discarding epochs that coincided with IPSCs. Any effect of drugs on the holding current was defined by subtracting the average holding currents in control and during drug application.
The baseline noise (RMS) was calculated before and during drug treatment. This was estimated from a continuous (30 s) current recording, sampled every 100 ms. The median current was calculated every 5 s and values more than twice the standard deviation from the median (usually due to IPSCs) were eliminated. Baseline GABA-mediated current noise was defined by subtracting RMS values before and after drugs, e.g., α-Bgtx or bicuculline.

α4β2δ receptors = target: T3, α4β2δ receptors (Mus musculus, UniProt P22933+P63137+Q9D6F4); experiment: Whole-cell GABA-activated and leak currents in transfected HEK-293 cells (patch clamp); assay type: cell-based, murine
T3 construct: expressed in transfected cells; host or cells: HEK-293
Description: as §1, §2, §3, §4

[4] = test system: dentate gyrus granule cells (DGGCs); experiment: Spontaneous IPSCs in dentate gyrus granule cells of acute hippocampal slices; assay type: cell-based, mouse
Description: as §5, §6, §4
IPSCs were detected and analysed using WinEDR and WinWCP (John Dempster, University of Strathclyde, UK). IPSC frequency was calculated using events detected over 60 s epochs of recording. […] This function provided the Gaussian mean amplitude current (μ) and standard deviation (σ). All the distributions were fitted using this function in Origin (Ver 6). The accuracy of the fits was checked by repeating the iterative non-linear fitting procedure after substituting the best-fit parameters obtained for the control and α-Bgtx datasets with new values.

α4β2γ2 GABAAR = target: T4, α4β2γ2 GABAAR (Mus musculus, UniProt P22723+P63137+Q9D6F4); assay type: cell-based, murine
T4 construct: expressed in transfected cells; host or cells: HEK-293
Description: as §1, §2
as §3, with “HEK-293 cells were studied 48 h after transfection by voltage clamping cells at a holding potential of −20 to −40 mV with optimised series resistance (Rs, <10 MΩ) and whole-cell membrane capacitance compensation.” left out
as §4

α2β2γ2 GABAARs = target: T5, α2β2γ2 GABAARs (Mus musculus, UniProt P22723+P26048+P63137); assay type: binding, murine
T5 construct: expressed in transfected cells; host or cells: HEK-293
Description: as §1, §2
Live transfected HEK-293 cells were studied 48 h after transfection and washed with Krebs to remove cell culture media and incubated in 400 nM α-Bgtx coupled with Alexa Fluor 555 (α-Bgtx-AF555; Life Technologies) for 10 min at room temperature (RT). Cells were washed and fixed in 4% paraformaldehyde (PFA; Sigma) for 10 min at RT. The cells were imaged immediately post-fixation in saline using a Zeiss LSM 510 Meta confocal microscope and an Achroplan x40 water DIC objective (NA 0.8) as described previously ([Hannan et al., 2012]). This involved choosing the optimal z-section and acquiring images as a mean of 4 scans in 16-bits using a 543 nm Helium–Neon laser and a 560 nm long-pass filter for α-Bgtx-AF555 and a 488 Argon laser with a 505–530 nm band-pass filter for eGFP.
Confocal images were analysed using ImageJ (version 1.410) as described previously ([Hannan et al., 2013]). For each cell the surface membrane was identified by drawing a region-of-interest (ROI) in the eGFP channel and this was transferred to the α-Bgtx-AF555 channel and the mean membrane fluorescence values were determined. Mean background fluorescence was determined from a region devoid of cells. This was subtracted from the mean membrane fluorescence providing a mean corrected fluorescence intensity value. These values, for different combinations of receptors and drugs, were graphically plotted using Origin.
To identify the location of the α-Bgtx binding site on GABAARs, we pre-incubated HEK-293 cells expressing α2β2γ2 with a range of ligands that act at GABAARs and nAChRs, for 5 min at RT followed by co-incubation with α-Bgtx-AF555 for 10 min at RT (Fig. 4A). These ligands were selected to ‘protect by binding occupancy’ known binding site domains on GABAARs and nAChRs.
A, Schematic of the experimental protocol. 48 hrs after transfection, HEK-293 cells expressing eGFP and α2β2γ2 were incubated in drug for 5 min at RT followed by the addition of drug +400 nM α-Bgtx-AF555 for 10 min at RT to label cell surface receptors. The cells were washed to remove the excess α-Bgtx-AF555, fixed and imaged. B, Images of cells expressing α2β2γ2, stained with α-Bgtx-AF555 in the presence of 1 mM d-Tc, 1 mM nicotine, or 1 mM carbachol. C, Mean cell surface fluorescence of α-Bgtx-AF555 bound to surface GABAARs in the presence of d-Tc, nicotine or carbachol. […] Scale bars 5 μm.

α2β2γ2 GABAAR = target: T6, α2β2γ2 GABAAR (Mus musculus, UniProt P22723+P26048+P63137); experiment: Whole-cell GABA-activated currents in transfected HEK-293 cells (patch clamp); assay type: cell-based, murine
T6 construct: expressed in transfected cells; host or cells: HEK-293
Description: as §1, §2, §3, §4

α2β2 receptors = target: T7, α2β2 receptors (Mus musculus, UniProt P26048+P63137); experiment: as above; assay type: cell-based, murine
T7 construct: expressed in transfected cells; host or cells: HEK-293
Description: as §1, §2
as §3, with “Whole-cell GABA-activated currents were recorded from transfected HEK-293 cells or hippocampal neurons in culture at 12–14 DIV using patch clamp electrophysiology. Patch” for “Patch”

[5] = 1 mM ligand, 5 min pre-incubation then + 400 nM α-Bgtx-AF555 10 min, n = 7, Fig. 4B–C

T3 sequence (P22933 17-449): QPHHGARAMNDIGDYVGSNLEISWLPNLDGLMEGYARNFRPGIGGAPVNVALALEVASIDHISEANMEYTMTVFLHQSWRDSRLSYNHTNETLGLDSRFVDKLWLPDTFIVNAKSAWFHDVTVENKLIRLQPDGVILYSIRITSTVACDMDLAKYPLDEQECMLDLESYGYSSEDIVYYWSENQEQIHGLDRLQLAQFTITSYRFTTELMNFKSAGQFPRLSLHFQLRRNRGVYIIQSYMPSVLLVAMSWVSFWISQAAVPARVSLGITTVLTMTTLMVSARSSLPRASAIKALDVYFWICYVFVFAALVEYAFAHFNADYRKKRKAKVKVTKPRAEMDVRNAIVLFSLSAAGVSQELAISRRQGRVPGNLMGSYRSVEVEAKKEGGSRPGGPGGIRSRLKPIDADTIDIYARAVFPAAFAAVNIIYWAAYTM
T3 sequence (P63137 25-512): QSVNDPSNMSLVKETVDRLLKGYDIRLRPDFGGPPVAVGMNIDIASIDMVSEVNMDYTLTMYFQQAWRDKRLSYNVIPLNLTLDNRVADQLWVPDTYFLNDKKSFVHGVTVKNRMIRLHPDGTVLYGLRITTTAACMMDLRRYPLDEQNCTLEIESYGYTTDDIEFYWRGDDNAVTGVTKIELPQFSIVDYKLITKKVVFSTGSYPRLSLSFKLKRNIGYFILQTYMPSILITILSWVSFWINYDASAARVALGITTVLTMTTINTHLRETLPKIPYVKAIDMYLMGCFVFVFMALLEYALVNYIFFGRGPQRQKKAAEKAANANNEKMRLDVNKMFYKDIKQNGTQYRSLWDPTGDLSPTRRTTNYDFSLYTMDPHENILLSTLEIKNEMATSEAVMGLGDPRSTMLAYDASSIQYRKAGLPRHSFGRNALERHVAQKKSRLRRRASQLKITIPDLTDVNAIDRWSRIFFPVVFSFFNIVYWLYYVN
T3 sequence (Q9D6F4 36-552): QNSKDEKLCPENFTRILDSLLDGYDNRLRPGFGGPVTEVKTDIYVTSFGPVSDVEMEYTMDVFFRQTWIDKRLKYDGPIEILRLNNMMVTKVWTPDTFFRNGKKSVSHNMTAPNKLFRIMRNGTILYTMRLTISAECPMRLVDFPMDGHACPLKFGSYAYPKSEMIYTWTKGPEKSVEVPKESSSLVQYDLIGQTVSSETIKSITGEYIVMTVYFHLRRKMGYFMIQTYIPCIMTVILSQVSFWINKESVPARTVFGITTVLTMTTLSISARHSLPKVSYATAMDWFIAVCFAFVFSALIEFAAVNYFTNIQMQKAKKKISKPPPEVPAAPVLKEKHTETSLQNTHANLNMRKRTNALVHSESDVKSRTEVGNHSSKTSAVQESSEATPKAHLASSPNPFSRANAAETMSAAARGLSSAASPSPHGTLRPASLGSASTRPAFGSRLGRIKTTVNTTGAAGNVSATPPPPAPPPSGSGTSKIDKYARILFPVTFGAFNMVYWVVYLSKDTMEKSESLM
T5 sequence (P26048 29-451): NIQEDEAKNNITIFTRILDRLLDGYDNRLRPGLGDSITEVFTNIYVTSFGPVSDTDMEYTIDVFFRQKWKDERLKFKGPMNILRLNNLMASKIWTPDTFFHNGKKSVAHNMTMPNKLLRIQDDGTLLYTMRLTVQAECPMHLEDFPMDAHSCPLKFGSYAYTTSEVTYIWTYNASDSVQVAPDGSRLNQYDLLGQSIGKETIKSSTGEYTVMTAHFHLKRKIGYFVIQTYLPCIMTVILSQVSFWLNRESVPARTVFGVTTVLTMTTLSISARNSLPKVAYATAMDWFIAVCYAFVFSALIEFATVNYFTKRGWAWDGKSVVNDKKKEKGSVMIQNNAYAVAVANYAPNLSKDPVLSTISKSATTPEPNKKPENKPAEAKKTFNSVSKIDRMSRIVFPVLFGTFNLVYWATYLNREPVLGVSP
T5 sequence (P63137 25-512): as the sequence (P63137 25-512) above
T5 sequence (P22723 39-474): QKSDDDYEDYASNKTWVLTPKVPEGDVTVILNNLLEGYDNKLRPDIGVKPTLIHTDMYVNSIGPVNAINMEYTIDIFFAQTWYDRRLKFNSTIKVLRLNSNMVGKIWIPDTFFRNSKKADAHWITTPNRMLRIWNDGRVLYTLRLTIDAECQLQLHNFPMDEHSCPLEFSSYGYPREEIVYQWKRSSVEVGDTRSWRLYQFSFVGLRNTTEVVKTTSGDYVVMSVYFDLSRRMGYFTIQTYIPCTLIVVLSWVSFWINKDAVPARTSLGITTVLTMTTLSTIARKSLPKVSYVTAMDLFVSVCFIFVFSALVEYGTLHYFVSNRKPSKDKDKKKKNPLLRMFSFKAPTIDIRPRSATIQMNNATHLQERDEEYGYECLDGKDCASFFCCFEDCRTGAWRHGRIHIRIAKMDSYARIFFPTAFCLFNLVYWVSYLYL
T1 sequence (P22723 39-474): as above
T1 sequence (Q8BHJ7 32-463): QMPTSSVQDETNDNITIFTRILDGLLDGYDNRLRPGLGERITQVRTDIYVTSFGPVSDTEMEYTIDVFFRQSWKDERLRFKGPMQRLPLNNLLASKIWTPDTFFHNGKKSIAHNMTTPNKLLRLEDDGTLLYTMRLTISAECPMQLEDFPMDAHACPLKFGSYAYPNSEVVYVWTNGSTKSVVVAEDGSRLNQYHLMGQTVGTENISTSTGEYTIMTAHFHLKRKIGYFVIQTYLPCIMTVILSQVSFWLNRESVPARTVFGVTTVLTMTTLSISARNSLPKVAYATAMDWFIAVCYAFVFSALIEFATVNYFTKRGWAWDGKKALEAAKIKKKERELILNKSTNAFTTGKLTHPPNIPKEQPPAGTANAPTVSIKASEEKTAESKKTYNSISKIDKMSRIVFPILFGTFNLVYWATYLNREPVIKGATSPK
T1 sequence (P63137 25-512): as the sequence (P63137 25-512) above
T6 sequence (P63137 25-512): as above
T6 sequence (P26048 29-451): as the sequence (P26048 29-451) above
T6 sequence (P22723 39-474): as the sequence (P22723 39-474) above
T4 sequence (P63137 25-512): as the sequence (P63137 25-512) above
T4 sequence (P22723 39-474): as the sequence (P22723 39-474) above
T4 sequence (Q9D6F4 36-552): as the sequence (Q9D6F4 36-552) above
T2 sequence (P63137 25-512): as the sequence (P63137 25-512) above
T2 sequence (P22723 39-474): as the sequence (P22723 39-474) above
T2 sequence (P62812 28-455): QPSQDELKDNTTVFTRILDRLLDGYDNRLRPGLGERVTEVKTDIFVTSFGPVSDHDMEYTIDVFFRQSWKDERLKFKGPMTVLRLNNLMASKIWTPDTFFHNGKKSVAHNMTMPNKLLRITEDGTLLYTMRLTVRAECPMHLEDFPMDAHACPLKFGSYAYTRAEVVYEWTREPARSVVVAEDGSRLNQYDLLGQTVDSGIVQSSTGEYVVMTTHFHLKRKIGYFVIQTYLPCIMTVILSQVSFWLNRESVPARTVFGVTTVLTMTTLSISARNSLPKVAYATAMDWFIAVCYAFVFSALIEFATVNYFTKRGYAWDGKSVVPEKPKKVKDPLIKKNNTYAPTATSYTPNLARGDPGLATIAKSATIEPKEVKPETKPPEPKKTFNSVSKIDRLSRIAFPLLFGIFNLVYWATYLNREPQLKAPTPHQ
T7 sequence (P26048 29-451): as the sequence (P26048 29-451) above
T7 sequence (P63137 25-512): as the sequence (P63137 25-512) above

α-bungarotoxin [α-Bgtx]
inhibition of submaximal GABA currents (α5β2γ2 GABAAR): 15.3 ± 5.9% | inhibition of submaximal GABA currents (α1β2γ2 GABAAR): 23.8 ± 3% | reduction of saturating GABA currents [1]: 13.0 ± 5.9% | inhibition of GABA currents [2]: 33 ± 9% | reversibility of inhibition [2]: reversible | RMS noise [3]: 3.39 ± 0.59 pA | change in DGGC holding current [3]: 1.27 ± 1.21 pA | potentiation of submaximal GABA responses (α4β2δ receptors): 46 ± 5% and 40 ± 6% | reduction in leak current in HEK-293 cells expressing α4β2δ relative to reduction of the leak in DGGCs (α4β2δ receptors): over 40 fold | reduction of leak current (α4β2δ receptors): 56 ± 3.7 pA and 75 ± 13 pA | IPSC amplitude distribution, Gaussian peak 1 mean [4]: −13.66 pA | IPSC amplitude distribution, Gaussian peak 2 mean [4]: −19.01 pA | frequency of IPSCs [4]: 2.17 ± 0.34 Hz | median IPSC amplitude [4]: −23.19 pA | inhibition of submaximal GABA currents (α4β2γ2 GABAAR): 41.3 ± 4.4%

picrotoxin
α-Bgtx-AF555 binding in presence of ligand (α2β2γ2 GABAARs): 106.7 ± 14.9 % of control

CCN1C[C@]2(COC(=O)c3ccccc3N3C(=O)C[C@H](C)C3=O)CC[C@H](OC)[C@@]34[C@@H]5C[C@H]6[C@H](OC)[C@@H]5[C@](O)(C[C@@H]6OC)[C@@](O)([C@@H](OC)[C@H]23)[C@@H]14 [MLA, methyllaconitine]
effect on amplitude of GABA-activated currents (α2β2γ2 GABAAR; 1 nM MLA pre-applied 1 min before co-application with GABA): did not affect the amplitude | effect on currents activated by sub-maximal GABA [2]: < 1 % of control | inhibition of GABA-activated currents ([2]; 10 μM GABA, 1 nM MLA, 1 min pre-incubation then co-applied, n = 6, P > 0.05): 0.8 ± 1.7 % inhibition | DGGC holding current ([3]; 1 nM MLA): slightly reduced | frequency of IPSCs ([4]; 1 nM MLA, n = 5, control 4.12 ± 0.9 Hz, P > 0.05): 3.75 ± 1.2 Hz | median IPSC amplitude ([4]; 1 nM MLA, n = 6098 events, control −30.82 pA, P > 0.05): −30.21 pA

CCCC(C)C1(CC)C(=O)NC(=O)NC1=O (centres unmarked) [pentobarbital]
modulation of 1 μM GABA currents ([2]; 20 μM pentobarbital): potentiated

C[N+](C)(C)CCOC(N)=O [carbachol]
α-Bgtx-AF555 binding in presence of ligand (α2β2γ2 GABAARs; [5]): 100.5 ± 11.3 % of control

CN1CCc2cc3c(cc2[C@H]1[C@@H]1OC(=O)c2c1ccc1c2OCO1)OCO3 [bicuculline]
RMS noise ([3]; 50 μM bicuculline applied after α-Bgtx, n = 6, P < 0.05): 2.74 ± 0.34 pA | average tonic current revealed (change in holding current) ([3]; 50 μM bicuculline, n = 7): 9.31 ± 2.52 pA

COc1cc2c3cc1Oc1cc(ccc1O)C[C@@H]1c4c(cc(OC)c(O)c4Oc4ccc(cc4)C[C@@H]3N(C)CC2)CC[N+]1(C)C [d-Tc, d-tubocurarine]
inhibition of whole-cell GABA-activated currents [2]: 92 ± 4 % inhibition | α-Bgtx-AF555 binding in presence of ligand (α2β2γ2 GABAARs; 1 mM d-Tc, n = 6, Fig. 4D–E): 7.1 ± 1.9 % of control | α-Bgtx-AF555 binding in presence of ligand (α2β2γ2 GABAARs; [5]): 1.8 ± 1.3 % of control

CN1CCC[C@H]1c1cccnc1 [nicotine]
α-Bgtx-AF555 binding in presence of ligand (α2β2γ2 GABAARs): 90.5 ± 11.4 % of control

NCCCC(=O)O [GABA, γ-aminobutyric acid]
EC50 (α5β2γ2 GABAAR; n = 5): 2.44 µM | α-Bgtx-AF555 binding in presence of ligand (α2β2γ2 GABAARs): 34.9 ± 7.1 % of control

Oc1noc2c1CCNC2 [THIP]
response compared with maximal GABA (1 mM) (α4β2δ receptors; 300 μM THIP): superagonist ability

[Zn+2] [Zn^2+]
inhibition of submaximal GABA currents by Zn^2+ (α2β2γ2 GABAAR): 37.4 ± 8.9% | inhibition of submaximal GABA currents by Zn^2+ (α2β2 receptors): 90.8 ± 4.44%
